# What was measured:
# Assay type in all cases: in vivo
# Conditions in all cases: 14 days after application
# [1] = test system: soybean (Glycine max L., var. Pella 86, SOY); assay: Post-emerge greenhouse screening, crop safety (phytotoxicity rating)
# Method in brief: (§1)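 Greenhouse screen. Sowing preceded application by one day (pre-emergence) or 8-21 days (post-emergence). Doses spanned 15 to 1000 g ai/ha in acetone. Score at day 14: 0 no injury, 100 total kill.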
# [2] = test system: upland rice (Oryza sp., var.Tebonnet, RICE); assay: as above
# Method in brief: as §1
# [3] = test system: soybean (Glycine max L., var. Pella 86, SOY); assay: Pre-emerge greenhouse screening, crop safety (phytotoxicity rating)
# Method in brief: as §1
# [4] = test system: upland rice (Oryza sp., var.Tebonnet, RICE); assay: as above
# Method in brief: as §1
# [5] = test system: field corn (Zea mays L., var. Dekalb 535, CORN); assay: as above
# Method in brief: as §1
# [6] = test system: ivyleaf morningglory (Ipomoea hederacea, IPOHE); assay: Post-emerge greenhouse herbicide activity screening, phytotoxicity rating
# Method in brief: as §1
# [7] = test system: large crabgrass (Digitaria sanguinalis, DIGSA); assay: as above
# Method in brief: as §1
# [8] = test system: green foxtail (Setaria viridis, SETVI); assay: as above
# Method in brief: as §1
# [9] = test system: lambsquarters (Chenopodium album, CHEAL); assay: as above
# Method in brief: as §1
# [10] = test system: johnsongrass (Sorghum halepense, SORHA); assay: as above
# Method in brief: as §1
# [11] = test system: redroot pigweed (Amaranthus retroflexus, AMARE); assay: as above
# Method in brief: as §1
# [12] = test system: sicklepod (Cassia obtusifolia, CASOB); assay: as above
# Method in brief: as §1
# [13] = test system: velvetleaf (Abutilon theophrasti, ABUTH); assay: as above
# Method in brief: as §1
# [14] = test system: barnyardgrass (Echinochloa crus-galli, ECHCG); assay: as above
# Method in brief: as §1
# [15] = test system: common ragweed (Ambrosia artemisiifolia L., AMBEL); assay: as above
# Method in brief: as §1
# [16] = test system: field corn (Zea mays L., var. Dekalb 535, CORN); assay: Post-emerge greenhouse screening, crop safety / corn selectivity (phytotoxicity rating)
# Method in brief: as §1
# [17] = test system: ivyleaf morningglory (Ipomoea hederacea, IPOHE); assay: Pre-emerge greenhouse herbicide activity screening, phytotoxicity rating
# Method in brief: as §1
# [18] = test system: large crabgrass (Digitaria sanguinalis, DIGSA); assay: as above
# Method in brief: as §1
# [19] = test system: green foxtail (Setaria viridis, SETVI); assay: as above
# Method in brief: as §1
# [20] = test system: lambsquarters (Chenopodium album, CHEAL); assay: as above
# Method in brief: as §1
# [21] = test system: johnsongrass (Sorghum halepense, SORHA); assay: as above
# Method in brief: as §1
# [22] = test system: redroot pigweed (Amaranthus retroflexus, AMARE); assay: as above
# Method in brief: as §1
# [23] = test system: sicklepod (Cassia obtusifolia, CASOB); assay: as above
# Method in brief: as §1
# [24] = test system: velvetleaf (Abutilon theophrasti, ABUTH); assay: as above
# Method in brief: as §1
# [25] = test system: barnyardgrass (Echinochloa crus-galli, ECHCG); assay: as above
# Method in brief: as §1
# [26] = test system: common ragweed (Ambrosia artemisiifolia L., AMBEL); assay: as above
# Method in brief: as §1
smiles,measurement,setting,value
Cn1c(=S)n(C)c(=O)n(-c2cc(Oc3ccccc3)c(Cl)cc2F)c1=O [Compound 2-16],"SOY crop damage, phytotoxicity rating (0-100 scale)",[1]; 125 g ai/ha,0
same,"SOY crop damage, phytotoxicity rating (0-100 scale)",[1]; 250 g ai/ha,0
same,"RICE crop damage, phytotoxicity rating (0-100 scale)",[2]; 125 g ai/ha,0
same,"RICE crop damage, phytotoxicity rating (0-100 scale)",[2]; 250 g ai/ha,0
same,"SOY crop damage, phytotoxicity rating (0-100 scale)",[3]; 125 g ai/ha,0
same,"SOY crop damage, phytotoxicity rating (0-100 scale)",[3]; 250 g ai/ha,0
same,"RICE crop damage, phytotoxicity rating (0-100 scale)",[4]; 125 g ai/ha,0
same,"RICE crop damage, phytotoxicity rating (0-100 scale)",[4]; 250 g ai/ha,0
same,"CORN crop damage, phytotoxicity rating (0-100 scale)",[5]; 125 g ai/ha,0
same,"CORN crop damage, phytotoxicity rating (0-100 scale)",[5]; 250 g ai/ha,5
same,IPOHE phytotoxicity rating (0-100 scale),[6]; 125 g ai/ha,0
same,IPOHE phytotoxicity rating (0-100 scale),[6]; 250 g ai/ha,0
same,DIGSA phytotoxicity rating (0-100 scale),[7]; 125 g ai/ha,0
same,DIGSA phytotoxicity rating (0-100 scale),[7]; 250 g ai/ha,0
same,SETVI phytotoxicity rating (0-100 scale),[8]; 125 g ai/ha,50
same,SETVI phytotoxicity rating (0-100 scale),[8]; 250 g ai/ha,50
same,CHEAL phytotoxicity rating (0-100 scale),[9]; 125 g ai/ha,70
same,CHEAL phytotoxicity rating (0-100 scale),[9]; 250 g ai/ha,70
same,SORHA phytotoxicity rating (0-100 scale),[10]; 125 g ai/ha,0
same,SORHA phytotoxicity rating (0-100 scale),[10]; 250 g ai/ha,0
same,AMARE phytotoxicity rating (0-100 scale),[11]; 125 g ai/ha,80
same,AMARE phytotoxicity rating (0-100 scale),[11]; 250 g ai/ha,80
same,CASOB phytotoxicity rating (0-100 scale),[12]; 125 g ai/ha,0
same,CASOB phytotoxicity rating (0-100 scale),[12]; 250 g ai/ha,0
same,ABUTH phytotoxicity rating (0-100 scale),[13]; 125 g ai/ha,0
same,ABUTH phytotoxicity rating (0-100 scale),[13]; 250 g ai/ha,40
same,ECHCG phytotoxicity rating (0-100 scale),[14]; 125 g ai/ha,0
same,ECHCG phytotoxicity rating (0-100 scale),[14]; 250 g ai/ha,35
same,AMBEL phytotoxicity rating (0-100 scale),[15]; 125 g ai/ha,0
same,AMBEL phytotoxicity rating (0-100 scale),[15]; 250 g ai/ha,0
same,"CORN crop damage, phytotoxicity rating (0-100 scale)",[16]; 125 g ai/ha,0
same,"CORN crop damage, phytotoxicity rating (0-100 scale)",[16]; 250 g ai/ha,0
same,IPOHE phytotoxicity rating (0-100 scale),[17]; 125 g ai/ha,0
same,IPOHE phytotoxicity rating (0-100 scale),[17]; 250 g ai/ha,10
same,DIGSA phytotoxicity rating (0-100 scale),[18]; 125 g ai/ha,75
same,DIGSA phytotoxicity rating (0-100 scale),[18]; 250 g ai/ha,80
same,SETVI phytotoxicity rating (0-100 scale),[19]; 125 g ai/ha,60
same,SETVI phytotoxicity rating (0-100 scale),[19]; 250 g ai/ha,95
same,CHEAL phytotoxicity rating (0-100 scale),[20]; 125 g ai/ha,100
same,CHEAL phytotoxicity rating (0-100 scale),[20]; 250 g ai/ha,100
same,SORHA phytotoxicity rating (0-100 scale),[21]; 125 g ai/ha,35
same,SORHA phytotoxicity rating (0-100 scale),[21]; 250 g ai/ha,75
same,AMARE phytotoxicity rating (0-100 scale),[22]; 125 g ai/ha,99
same,AMARE phytotoxicity rating (0-100 scale),[22]; 250 g ai/ha,100
same,CASOB phytotoxicity rating (0-100 scale),[23]; 125 g ai/ha,20
same,CASOB phytotoxicity rating (0-100 scale),[23]; 250 g ai/ha,35
same,ABUTH phytotoxicity rating (0-100 scale),[24]; 125 g ai/ha,55
same,ABUTH phytotoxicity rating (0-100 scale),[24]; 250 g ai/ha,60
same,ECHCG phytotoxicity rating (0-100 scale),[25]; 125 g ai/ha,35
same,ECHCG phytotoxicity rating (0-100 scale),[25]; 250 g ai/ha,60
same,AMBEL phytotoxicity rating (0-100 scale),[26]; 125 g ai/ha,50
same,AMBEL phytotoxicity rating (0-100 scale),[26]; 250 g ai/ha,55

# Reference: patent publication US6613718B2, “Aryl ether derivatives and processes for their preparation and herbicidal and desiccant compositions containing them” (Ishihara Sangyo Kaisha, Ltd., priority 2001, dated 2003)
